According to ChEMBL document CHEMBL1123689, “Quantitative structure-activity analysis in dihydropteroate synthase inhibition by sulfones. Comparison with sulfanilamides” (J Med Chem, 1987):
Where “and” joins values, the source holds several entries; their conditions need not be identical. Equal entries are not always repeated.

Key:
[1] = target: T1, Dihydropteroate synthase (Escherichia coli K-12) (UniProt P0AC13); test: Inhibition of dihydropteroate synthase of Escherichia coli
T1 sequence (whole entry): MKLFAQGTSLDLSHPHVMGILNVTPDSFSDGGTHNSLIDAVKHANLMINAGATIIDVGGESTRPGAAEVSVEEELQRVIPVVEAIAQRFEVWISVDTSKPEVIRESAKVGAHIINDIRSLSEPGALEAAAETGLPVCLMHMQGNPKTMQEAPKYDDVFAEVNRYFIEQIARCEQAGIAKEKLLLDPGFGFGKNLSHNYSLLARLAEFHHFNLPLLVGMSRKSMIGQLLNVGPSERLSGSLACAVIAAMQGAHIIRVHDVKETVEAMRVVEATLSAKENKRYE

[2] = test system: Mycobacterium 607; test: Inhibition of Dihydropteroate synthase of Mycobacterium 607 and log (1/MIC) was reported
[3] = pKa value by spectrophotometrically at pH 8.2 (for mono ionic form); assay type: physicochemical; details: read-out: pKa1
[4] = pKa value was determined by spectrophotometrically at pH 8.2 (for di ionic form ); assay type: physicochemical; details: read-out: pKa2
[5] = pKa value by spectrophotometrically at pH 8.2; assay type: physicochemical
[6] = pKa value by spectrophotometrically at pH 8.2 (for di ionic form ); assay type: physicochemical; details: read-out: pKa2

Nc1ccc(S(=O)(=O)c2ccc(NC=O)cc2)cc1
EII50 [1]: 5.79
Log 1/MIC [2]: 4.74

N#Cc1ccc(S(=O)(=O)c2ccc(N)cc2)cc1
EII50 [1]: 67.3

Nc1ccc(S(=O)(=O)c2ccc([N+](=O)[O-])cc2[N+](=O)[O-])cc1
EII50 [1]: 36.3

Nc1ccc(S(=O)(=O)c2ccc(O)cc2O)cc1
pKa [3]: 7.67
pKa [4]: 10.1
EII50 [1]: 0.71

Nc1ccc(S(=O)(=O)c2c(Cl)cc(Cl)cc2Cl)cc1
EII50 [1]: 3.31

Nc1ccc(S(=O)(=O)c2ccc(NO)cc2)cc1
EII50 [1]: 4.53
Log 1/MIC [2]: 4.46

Nc1ccc(S(=O)(=O)c2ccc(N)cc2)cc1
EII50 [1]: 2.64

Nc1ccc(S(=O)(=O)c2ccccc2)cc1
EII50 [1]: 9.56

Nc1ccc(S(=O)(=O)c2ccccc2N)cc1
EII50 [1]: 2.27
Log 1/MIC [2]: 4.35

CCN(CC)c1ccc(S(=O)(=O)c2ccc(N)cc2)cc1
EII50 [1]: 2.64

Nc1ccc(S(=O)(=O)c2ccc(F)cc2)cc1
EII50 [1]: 18.1
Log 1/MIC [2]: 3.5

Nc1ccc(S(=O)(=O)c2ccc([N+](=O)[O-])cc2)cc1
EII50 [1]: 45.3
Log 1/MIC [2]: 3.36

NC(=O)c1ccc(S(=O)(=O)c2ccc(N)cc2)cc1
EII50 [1]: 22.6

Nc1ccc(S(=O)(=O)c2ccc(Cl)cc2Cl)cc1
EII50 [1]: 2.24

CCNc1ccc(S(=O)(=O)c2ccc(N)cc2)cc1
EII50 [1]: 4.53
Log 1/MIC [2]: 4.26

Nc1ccc(S(=O)(=O)c2ccc(C(=O)O)cc2)cc1
EII50 [1]: 5.09
pKa [5]: 3.6

Nc1ccc(S(=O)(=O)c2ccc(Cl)cc2)cc1
EII50 [1]: 20.8

Nc1ccc(S(=O)(=O)c2cccc(N)c2)cc1
EII50 [1]: 6.04
Log 1/MIC [2]: 4.62

Cc1ccc(S(=O)(=O)c2ccc(N)cc2)cc1
EII50 [1]: 6.04

Cc1cc(C)c(S(=O)(=O)c2ccc(N)cc2)c(C)c1
EII50 [1]: 1.69

COC(=O)c1ccc(S(=O)(=O)c2ccc(N)cc2)cc1
EII50 [1]: 34

CC(=O)c1ccc(S(=O)(=O)c2ccc(N)cc2)cc1
EII50 [1]: 43.4

COc1cc(OC)c(S(=O)(=O)c2ccc(N)cc2)c(OC)c1
EII50 [1]: 12.9

CCN(CC)C(=O)c1ccc(S(=O)(=O)c2ccc(N)cc2)cc1
EII50 [1]: 49.1

CN(C)c1ccc(S(=O)(=O)c2ccc(N)cc2)cc1
EII50 [1]: 3.63

Nc1ccc(S(=O)(=O)c2c(O)cc(O)cc2O)cc1
pKa [3]: 7.69
pKa [6]: 9.62
EII50 [1]: 1.46 and 1.91

COc1ccc(S(=O)(=O)c2ccc(N)cc2)cc1
EII50 [1]: 6.6
Log 1/MIC [2]: 4.02

COc1ccc(S(=O)(=O)c2ccc(N)cc2)c(OC)c1
EII50 [1]: 3.21

Nc1ccc(S(=O)(=O)c2ccc(N)cc2N)cc1
EII50 [1]: 1.59

CC(=O)Nc1ccc(S(=O)(=O)c2ccc(N)cc2)cc1
EII50 [1]: 5.75

Nc1ccc(S(=O)(=O)c2ccc(Br)cc2)cc1
EII50 [1]: 11.1
Log 1/MIC [2]: 3.59

Nc1ccc(S(=O)(=O)c2ccc(O)cc2)cc1
EII50 [1]: 1.5 and 2.45
Log 1/MIC [2]: 5.96

Cc1ccc(S(=O)(=O)c2ccc(N)cc2)c(C)c1
EII50 [1]: 1.89
